Literature values in patent US20230158012A1, “ORAL LIQUID FORMULATIONS OF LENVATINIB” (SHILPA MEDICARE LIMITED, priority 2020, published 2023).

Details: 5% w/w aqueous solution or suspension

Row | Compound | pH value
1 | O=P([O-])([O-])O.[Na+].[Na+] [disodium hydrogenphosphate] | 9.26
2 | [O]=[Mg] [magnesium oxide] | 10.63
3 | CC(=O)[O-].[Na+] [sodium acetate] | 8.46
4 | NCC(=O)O [glycine] | 6.17
5 | O=C1O[C@H](CO)[C@@H](O)[C@H](O)[C@H]1O [Gluconolactone] | 2.40
6 | O=P([O-])([O-])O.[K+].[K+] [dipotassium hydrogenphosphate] | 9.11
7 | [Na+].[OH-] [sodium hydroxide] | 13.56

The remaining lines, values ahead:

Row | pH value | Compound
8 | 8.22 | O=C([O-])CC(O)(CC(=O)[O-])C(=O)[O-].[Na+].[Na+].[Na+] [sodium citrate]
9 | 8.15 | O=C([O-])O.[Na+] [sodium hydrogencarbonate]
10 | 11.45 | O=C([O-])[O-].[Na+].[Na+] [sodium carbonate]
